The text below walks through data of ChEMBL document CHEMBL3259698, “Reductions in log P improved protein binding and clearance predictions enabling the prospective design of cannabinoid receptor (CB1) antagonists with desired pharmacokinetic properties” (J Med Chem, 2013).

In general, Ki refers to the dissociation constant of the complex between target and ligand, obtained from inhibition or displacement. By logP is commonly meant the decadic logarithm of the partition coefficient of the neutral form, usually between octanol and water. As a reminder, the IC50 is the concentration at which inhibition is half-maximal. A word on the Cmax: it is the highest concentration seen after dosing. By AUC is commonly meant concentration integrated over time. Broadly, the bioavailability is the share of a dose that reaches the circulation, judged against a reference dose that is usually intravenous.

Data set [1] concerns the target Cannabinoid receptor 1 (Homo sapiens, UniProt P21554). As to the kind of experiment: Binding affinity to human CB1 receptor expressed in CHO cells by radioligand displacement based scintillation counting analysis. The format is cell-based. (In general: Loss of bound radioactivity is the signal in a displacement assay; it reports binding, not function.)
Data set [2] can be described thus: Lipophilicity, log P of the compound by HPLC analysis. It is filed as physicochemical.
Data set [3] is described as follows: Terminal half life in Sprague-Dawley rat at 3 mg/kg, iv. It is filed as ADME, organism-based. Further details: dose 3 mg/kg, route intravenous. The note with it: in vivo, read-out: beta t1/2 (converted).
For data set [4], the system named is Rattus norvegicus. As to the kind of experiment: Reduction in food intake in nonfasted po dosed Sprague-Dawley rat measured for 8 hrs. It is filed as functional. The following applies: read-out: MED.
Data set [5] has as its system Rattus norvegicus. Briefly: Reduction in food intake in nonfasted Sprague-Dawley rat at 10 mg/kg, po measured for 8 hrs. Also noted: scale not given: the % may be the effect or the level left. It is filed as functional.
The target in data set [6] is Cytochrome P450 2C19 (Homo sapiens, UniProt P33261). Briefly: Inhibition of human recombinant CYP2C19. It is filed as ADME.
Sequence of Cytochrome P450 2C19 (P33261 whole entry): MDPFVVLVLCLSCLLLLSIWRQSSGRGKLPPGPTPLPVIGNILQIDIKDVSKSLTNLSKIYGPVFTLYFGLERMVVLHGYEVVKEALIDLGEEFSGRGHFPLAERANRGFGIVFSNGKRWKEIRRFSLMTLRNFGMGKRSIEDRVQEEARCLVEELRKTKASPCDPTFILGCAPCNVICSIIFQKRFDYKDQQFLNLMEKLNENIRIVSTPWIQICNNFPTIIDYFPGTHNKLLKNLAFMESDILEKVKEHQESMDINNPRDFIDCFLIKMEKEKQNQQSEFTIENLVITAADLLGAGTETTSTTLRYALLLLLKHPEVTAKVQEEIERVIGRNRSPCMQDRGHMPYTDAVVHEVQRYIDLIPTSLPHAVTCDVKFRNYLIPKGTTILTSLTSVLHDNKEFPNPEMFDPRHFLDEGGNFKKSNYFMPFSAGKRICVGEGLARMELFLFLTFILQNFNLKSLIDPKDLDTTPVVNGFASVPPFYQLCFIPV
Data set [7] addresses Cytochrome P450 2C9 (Homo sapiens, UniProt P11712). As to the kind of experiment: Inhibition of human recombinant CYP2C9. The format is ADME.
The target of data set [8] is T1, Cytochrome P450 3A4 (Homo sapiens, UniProt P08684). Briefly: Inhibition of CYP3A4 in human hepatocytes. It is filed as ADME, cell-based, Hepatocyte.
T1 sequence (P08684 whole entry): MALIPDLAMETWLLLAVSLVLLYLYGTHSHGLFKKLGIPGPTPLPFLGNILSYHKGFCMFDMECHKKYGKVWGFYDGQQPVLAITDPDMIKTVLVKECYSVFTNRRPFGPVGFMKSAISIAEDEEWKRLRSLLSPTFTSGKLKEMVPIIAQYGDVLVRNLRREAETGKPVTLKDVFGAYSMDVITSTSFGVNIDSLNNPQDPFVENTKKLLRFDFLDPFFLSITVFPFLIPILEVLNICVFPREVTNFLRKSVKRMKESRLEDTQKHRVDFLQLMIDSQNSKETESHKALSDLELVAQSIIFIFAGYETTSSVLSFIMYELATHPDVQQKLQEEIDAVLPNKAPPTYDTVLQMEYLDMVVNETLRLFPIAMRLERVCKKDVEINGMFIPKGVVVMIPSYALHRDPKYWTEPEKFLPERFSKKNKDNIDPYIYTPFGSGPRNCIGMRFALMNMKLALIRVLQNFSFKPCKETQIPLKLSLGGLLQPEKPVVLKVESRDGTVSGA
The test system of data set [9] is Rattus norvegicus. Briefly: Antiobesity activity in rat assessed as reduction in food intake at 10 mg/kg. It is filed as functional. Also noted: scale not given: the % may be the effect or the level left.
Data set [10] relates to Rattus norvegicus. As to the kind of experiment: Antiobesity activity in rat assessed as reduction in body weight at 10 mg/kg, qd after 4 days. Further details: scale not given: the % may be the effect or the level left. The format is functional.
The nature of data set [11]: Cmax in rat at 10 mg/kg, qd. The format is ADME, organism-based. Also noted: dose 10 mg/kg. The following applies: in vivo.
The nature of data set [12]: AUC (0 to 24 hrs) in rat at 10 mg/kg, qd. Also noted: time < 24 hr, dose 10 mg/kg. It is filed as ADME, organism-based. The following applies: plasma.
Data set [13] in a line: Oral bioavailability in Sprague-Dawley rat. The format is ADME, organism-based. The note with it: in vivo.
Data set [14] in a line: Oral bioavailability in dog. The format is ADME, organism-based, Canis lupus familiaris. The note with it: in vivo.
Data set [15] in a line: Oral bioavailability in cynomolgus monkey. The format is ADME, organism-based, Macaca fascicularis. The note with it: in vivo.
Data set [16] can be described thus: Elimination half life in iv dosed dog. The format is ADME, organism-based, Canis lupus familiaris. The following applies: in vivo, read-out: beta t1/2 (converted).
A short description of data set [17]: Elimination half life in iv dosed cynomolgus monkey. The note with it: in vivo, read-out: beta t1/2 (converted). The format is ADME, organism-based, Macaca fascicularis.
Data set [18] has as its target T1, Cytochrome P450 3A4. As to the kind of experiment: Inhibition of CYP3A4 in human liver microsomes. It is filed as ADME. Background: Liver microsomes are a subcellular fraction often used to study metabolism.

Sequence of Cannabinoid receptor 1 (P21554 whole entry): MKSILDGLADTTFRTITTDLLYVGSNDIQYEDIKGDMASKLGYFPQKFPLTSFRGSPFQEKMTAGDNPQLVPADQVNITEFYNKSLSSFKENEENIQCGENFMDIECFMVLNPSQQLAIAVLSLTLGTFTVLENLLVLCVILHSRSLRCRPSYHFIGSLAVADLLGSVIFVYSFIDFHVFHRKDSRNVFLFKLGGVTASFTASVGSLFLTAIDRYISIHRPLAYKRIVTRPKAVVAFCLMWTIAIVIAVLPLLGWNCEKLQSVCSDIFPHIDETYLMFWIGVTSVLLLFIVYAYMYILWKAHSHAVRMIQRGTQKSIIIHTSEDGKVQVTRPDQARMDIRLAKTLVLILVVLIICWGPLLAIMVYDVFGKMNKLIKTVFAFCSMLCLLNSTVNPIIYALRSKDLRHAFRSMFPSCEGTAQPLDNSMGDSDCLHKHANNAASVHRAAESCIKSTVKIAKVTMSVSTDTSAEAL
Sequence of Cytochrome P450 2C9 (P11712 whole entry): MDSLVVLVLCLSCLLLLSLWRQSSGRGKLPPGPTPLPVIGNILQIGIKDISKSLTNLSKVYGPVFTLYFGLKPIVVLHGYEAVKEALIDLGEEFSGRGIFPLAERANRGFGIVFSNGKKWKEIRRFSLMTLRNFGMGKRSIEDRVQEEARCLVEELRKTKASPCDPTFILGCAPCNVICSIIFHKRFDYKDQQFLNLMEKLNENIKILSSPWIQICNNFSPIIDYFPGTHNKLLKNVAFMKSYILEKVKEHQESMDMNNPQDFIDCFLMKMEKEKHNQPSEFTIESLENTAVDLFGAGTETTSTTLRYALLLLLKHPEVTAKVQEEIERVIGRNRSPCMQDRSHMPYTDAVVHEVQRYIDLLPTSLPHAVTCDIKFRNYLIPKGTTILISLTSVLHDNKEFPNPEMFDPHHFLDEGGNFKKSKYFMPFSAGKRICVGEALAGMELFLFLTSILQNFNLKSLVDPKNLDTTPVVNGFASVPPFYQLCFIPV

Turning to `CCn1nc2c(-c3ccc(Cl)cc3)c(-c3ccncc3)c(=O)n(Cc3ccc(C(F)(F)F)nc3C)n2c1=O`, in data set [1], the affinity corresponds to a Ki of 0.0045 µM. In data set [2], this molecule came in with a log partition coefficient (logP) of 3.9. The half-life in [3] is 5 h; in data set [16], 38 h; in [17], 6 h. The minimal effective dose in data set [4] was determined as 10 mg/kg. Besides, the results for the Activity in data set [5], in [9] and in data set [10] were 51%, 43% and 4%, respectively. The half-inhibitory concentration (IC50) in [6] stood at 2.6 µM; in [7] it was 4.2 µM; in [8], 3 µM; in data set [18], 9.1 µM. For the same molecule, the Cmax in [11] amounted to 4 µM. Moreover, in [12], the AUC at 24 h turned out to be 48 µM·h. Besides, the bioavailability in [13] was determined as 50%; in data set [14] it was 40%; in data set [15] it was 15%.
